Test results taken from patent publication US8906855B2, “Methods and compositions for treating conditions related to lack of blood supply, shock and neuronal injuries” (Vivacelle Bio, Inc., priority 2007, dated 2014).

Columns and labels:
[1] = Battion et al. 1968; cited from earlier work
[2] = 1 atm; from The Engineering Toolbox; cited from earlier work
[3] = Nitric oxide uptake/content of the emulsion by mass spectrometry; conditions: equilibrated 60 minutes with 100 ppm nitric oxide in helium; ten samples
Method: Some samples (1 ml each) were left open to air in 2.0 ml tubes for 30 minutes prior to dissolved gas analysis. In other experiments the emulsion was placed into a 15 ml tube. The headspace was filled with the gas under study and the gas was allowed to enter the emulsion by equilibration over 60 minutes with the tube on its side to increase the gas emulsion interaction. 50 μL drawn from each of these fluids were injected into a Sievers purge vessel at 37° C. containing 36 ml of a mildly acidic solution consisting of 32 ml of 1M HCL and 4 ml of 0.5M ascorbic acid. […] Signals generated at m/z=32 upon injection of RL and lipid emulsion samples were integrated using Peakfit and compared to those obtained with distilled water.
In another set of experiments we measured the uptake of nitric oxide by a commercially available 20% soybean oil emulsion, Liposyn III 20%. This emulsion contains 20% soybean oil, 1.2% egg phospholipids and 2.5% glycerin in water. Using NaOH pH was adjusted to 8.3. […] 100 ppm nitric oxide in helium was used to purge the headspace for two minutes taking care not to bubble the fluid. For sixty minutes the sample was allowed to reach gas-liquid equilibrium with the tube placed on its side to maximize gas-emulsion contact. The ***nitric oxide content was measured in ten samples that were equilibrated with nitric oxide and ten samples that were equilibrated with room air.

[4] = cited from earlier work
[5] = published value; cited from earlier work

With `O=O` [Oxygen] as the molecule, how does the “solubility in lipid relative to water” value [1] read?
The value was 4.41 times.

Which “Oxygen Content at 25° C. and Sea level Pressure” value [2] does the source give for `O` [Water, water] here?
Its value is 8.3 mg/L.

And the “nitric oxide content, mean and standard error” value [3]?
The value was 2.12×10^−3+/−0.17×10^−3.

For `[Xe]` [Xenon], which “minimum alveolar concentration (MAC)” value ([4]; anesthetic) is on record?
Its value is 71%.

What about the “more potent than N2O as an anesthetic” value ([4]; in vivo) of the same molecule?
Its value is 50%.

With hemoglobin as the molecule, how does the oxygen release time [5] read?
Its oxygen release time is 17.5 ms.
